In the NIST ThermoML archive (doi:10.1016/j.jct.2009.08.004):
Numbers after ± are expanded uncertainties.

Assay: mn = molality of the nth substance listed, in mol/kg
Conditions: 298.15 K, 101 kPa, Liquid, Pulse-echo method

speed of sound (m1 = 0.02692): 1499.5 ± 0.77 m/s
speed of sound (m1 = 0.03696): 1500.6 ± 0.77 m/s
speed of sound (m1 = 0.04335): 1501.3 ± 0.77 m/s
speed of sound (m1 = 0.05037): 1502 ± 0.77 m/s
speed of sound (m1 = 0.06228): 1503.2 ± 0.77 m/s
SMILES: NCC(=O)N[C@@H](CO)C(=O)NCC(=O)O [glycyl-L-serylglycine] + O
